Laboratory results reported in ChEMBL document CHEMBL4152229, “Synthesis and biological evaluation of 2,6-disubstituted-9H-purine, 2,4-disubstitued-thieno[3,2-d]pyrimidine and -7H-pyrrolo[2,3-d]pyrimidine analogues as novel CHK1 inhibitors” (Eur J Med Chem, 2018).

Assays:
[1] = molecular target: Serine/threonine-protein kinase Chk2 (Homo sapiens) (UniProt O96017); assay: Inhibition of DNA-tagged CHK2 (unknown origin) expressed in HEK293 cells at 10 uM after 1 hr by real-time fluorescent quantitative PCR analysis; format: cell-based
HT-29 [2] = assay: cells; conditions: Homo sapiens, HT-29, 72 h
Description: Antiproliferative activity against human HT-29 cells after 72 hrs by MTS assay

HT-29 [3] = assay: Potentiation of gemcitabine-induced cell cycle arrest in human HT-29 cells assessed as accumulation at G1 phase at 10 uM after 48 hrs by propidium iodide/RNase staining-based flow cytometric analysis (reference value: 62.1%); format: functional
[4] = molecular target: RAC-alpha serine/threonine-protein kinase (Homo sapiens) (UniProt P31749); assay: Inhibition of DNA-tagged AKT1 (unknown origin) expressed in HEK293 cells at 10 uM after 1 hr by real-time fluorescent quantitative PCR analysis; format: cell-based
[5] = molecular target: T1, Ephrin type-B receptor 4 (Homo sapiens) (UniProt P54760); assay: Inhibition of DNA-tagged EPHB4 (unknown origin) expressed in HEK293 cells at 10 uM after 1 hr by real-time fluorescent quantitative PCR analysis; format: cell-based
T1 sequence (whole entry): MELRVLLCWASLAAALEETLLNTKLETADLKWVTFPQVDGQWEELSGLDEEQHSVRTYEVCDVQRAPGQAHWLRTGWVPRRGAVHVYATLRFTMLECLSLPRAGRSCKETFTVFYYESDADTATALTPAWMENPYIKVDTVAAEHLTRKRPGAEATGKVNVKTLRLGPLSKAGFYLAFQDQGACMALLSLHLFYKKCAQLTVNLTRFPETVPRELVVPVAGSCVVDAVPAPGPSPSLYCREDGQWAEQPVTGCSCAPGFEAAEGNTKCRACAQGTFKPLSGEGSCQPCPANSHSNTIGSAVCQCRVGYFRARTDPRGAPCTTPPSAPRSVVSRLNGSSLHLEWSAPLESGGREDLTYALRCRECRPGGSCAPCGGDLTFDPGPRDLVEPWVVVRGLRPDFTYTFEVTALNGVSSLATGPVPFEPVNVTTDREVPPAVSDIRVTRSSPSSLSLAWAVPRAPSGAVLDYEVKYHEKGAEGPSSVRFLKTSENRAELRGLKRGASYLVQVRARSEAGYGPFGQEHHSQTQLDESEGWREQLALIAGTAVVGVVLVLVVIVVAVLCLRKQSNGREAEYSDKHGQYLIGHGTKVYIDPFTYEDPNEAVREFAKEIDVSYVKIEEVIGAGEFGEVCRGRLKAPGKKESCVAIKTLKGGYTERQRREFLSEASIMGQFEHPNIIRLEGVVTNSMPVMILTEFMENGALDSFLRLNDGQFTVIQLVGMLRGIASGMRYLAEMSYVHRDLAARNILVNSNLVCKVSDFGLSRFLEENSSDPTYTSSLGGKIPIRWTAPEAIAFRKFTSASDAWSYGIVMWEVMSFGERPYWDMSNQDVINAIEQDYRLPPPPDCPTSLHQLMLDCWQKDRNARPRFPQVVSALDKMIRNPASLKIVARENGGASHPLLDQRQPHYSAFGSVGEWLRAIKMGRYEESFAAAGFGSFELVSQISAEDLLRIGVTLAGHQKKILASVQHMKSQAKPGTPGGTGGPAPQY

[6] = molecular target: T2, Serine/threonine-protein kinase Chk1 (Homo sapiens, UniProt O14757); assay: Inhibition of CHK1 (unknown origin) using Cdc25 peptide as substrate preincubated for 30 mins followed by substrate addition and measured after 60 mins by ADP-Glo kinase assay
T2 sequence (O14757 whole entry): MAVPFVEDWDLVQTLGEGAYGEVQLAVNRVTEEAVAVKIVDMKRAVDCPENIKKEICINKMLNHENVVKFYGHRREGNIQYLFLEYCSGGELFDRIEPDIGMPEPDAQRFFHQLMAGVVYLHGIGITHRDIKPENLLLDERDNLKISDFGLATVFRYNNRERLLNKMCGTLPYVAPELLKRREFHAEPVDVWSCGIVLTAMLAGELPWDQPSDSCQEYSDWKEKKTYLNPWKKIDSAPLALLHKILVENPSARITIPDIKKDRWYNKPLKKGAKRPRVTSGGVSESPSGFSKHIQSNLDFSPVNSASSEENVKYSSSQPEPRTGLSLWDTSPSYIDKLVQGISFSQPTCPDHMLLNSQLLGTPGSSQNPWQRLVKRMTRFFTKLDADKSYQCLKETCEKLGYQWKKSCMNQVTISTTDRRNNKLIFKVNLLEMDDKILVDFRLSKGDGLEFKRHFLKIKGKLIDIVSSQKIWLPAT

[7] = molecular target: Mitogen-activated protein kinase 1 (Homo sapiens) (UniProt P28482); assay: Inhibition of DNA-tagged MAPK1 (unknown origin) expressed in HEK293 cells at 10 uM after 1 hr by real-time fluorescent quantitative PCR analysis; format: cell-based
[8] = molecular target: Epidermal growth factor receptor (Homo sapiens) (UniProt P00533); assay: Inhibition of DNA-tagged EGFR (unknown origin) expressed in HEK293 cells at 10 uM after 1 hr by real-time fluorescent quantitative PCR analysis; format: cell-based
[9] = molecular target: T3, Serine/threonine-protein kinase 3 (Homo sapiens) (UniProt Q13188); assay: Inhibition of DNA-tagged STK3 (unknown origin) expressed in HEK293 cells at 10 uM after 1 hr by real-time fluorescent quantitative PCR analysis; format: cell-based
T3 sequence (whole entry): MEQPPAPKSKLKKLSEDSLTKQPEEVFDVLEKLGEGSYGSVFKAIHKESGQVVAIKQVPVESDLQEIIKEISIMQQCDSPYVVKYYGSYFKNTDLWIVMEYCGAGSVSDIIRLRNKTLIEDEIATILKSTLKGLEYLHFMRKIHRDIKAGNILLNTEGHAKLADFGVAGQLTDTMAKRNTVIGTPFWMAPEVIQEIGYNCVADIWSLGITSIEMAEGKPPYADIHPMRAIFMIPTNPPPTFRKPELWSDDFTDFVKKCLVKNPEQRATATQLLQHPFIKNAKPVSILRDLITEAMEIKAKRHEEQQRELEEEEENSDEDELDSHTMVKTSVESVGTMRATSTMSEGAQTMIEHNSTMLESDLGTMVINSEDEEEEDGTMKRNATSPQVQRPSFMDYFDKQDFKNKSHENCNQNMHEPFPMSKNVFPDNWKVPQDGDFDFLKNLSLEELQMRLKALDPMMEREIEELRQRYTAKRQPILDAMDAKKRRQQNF

[10] = molecular target: Glycogen synthase kinase-3 beta (Homo sapiens) (UniProt P49841); assay: Inhibition of DNA-tagged GSK3beta (unknown origin) expressed in HEK293 cells at 10 uM after 1 hr by real-time fluorescent quantitative PCR analysis; format: cell-based
[11] = molecular target: Cyclin-dependent kinase 2 (Homo sapiens) (UniProt P24941); assay: Inhibition of DNA-tagged CDK2 (unknown origin) expressed in HEK293 cells at 10 uM after 1 hr by real-time fluorescent quantitative PCR analysis; format: cell-based
[12] = molecular target: T4, Serine/threonine-protein kinase Chk1 (Homo sapiens) (UniProt O14757); assay: Inhibition of CHK1 (unknown origin) at 10 uM using Cdc25 peptide as substrate preincubated for 30 mins followed by substrate addition and measured after 60 mins by ADP-Glo kinase assay
T4 sequence (whole entry): T2 sequence (O14757 whole entry)

Sequence of Epidermal growth factor receptor (Homo sapiens) (P00533 whole entry): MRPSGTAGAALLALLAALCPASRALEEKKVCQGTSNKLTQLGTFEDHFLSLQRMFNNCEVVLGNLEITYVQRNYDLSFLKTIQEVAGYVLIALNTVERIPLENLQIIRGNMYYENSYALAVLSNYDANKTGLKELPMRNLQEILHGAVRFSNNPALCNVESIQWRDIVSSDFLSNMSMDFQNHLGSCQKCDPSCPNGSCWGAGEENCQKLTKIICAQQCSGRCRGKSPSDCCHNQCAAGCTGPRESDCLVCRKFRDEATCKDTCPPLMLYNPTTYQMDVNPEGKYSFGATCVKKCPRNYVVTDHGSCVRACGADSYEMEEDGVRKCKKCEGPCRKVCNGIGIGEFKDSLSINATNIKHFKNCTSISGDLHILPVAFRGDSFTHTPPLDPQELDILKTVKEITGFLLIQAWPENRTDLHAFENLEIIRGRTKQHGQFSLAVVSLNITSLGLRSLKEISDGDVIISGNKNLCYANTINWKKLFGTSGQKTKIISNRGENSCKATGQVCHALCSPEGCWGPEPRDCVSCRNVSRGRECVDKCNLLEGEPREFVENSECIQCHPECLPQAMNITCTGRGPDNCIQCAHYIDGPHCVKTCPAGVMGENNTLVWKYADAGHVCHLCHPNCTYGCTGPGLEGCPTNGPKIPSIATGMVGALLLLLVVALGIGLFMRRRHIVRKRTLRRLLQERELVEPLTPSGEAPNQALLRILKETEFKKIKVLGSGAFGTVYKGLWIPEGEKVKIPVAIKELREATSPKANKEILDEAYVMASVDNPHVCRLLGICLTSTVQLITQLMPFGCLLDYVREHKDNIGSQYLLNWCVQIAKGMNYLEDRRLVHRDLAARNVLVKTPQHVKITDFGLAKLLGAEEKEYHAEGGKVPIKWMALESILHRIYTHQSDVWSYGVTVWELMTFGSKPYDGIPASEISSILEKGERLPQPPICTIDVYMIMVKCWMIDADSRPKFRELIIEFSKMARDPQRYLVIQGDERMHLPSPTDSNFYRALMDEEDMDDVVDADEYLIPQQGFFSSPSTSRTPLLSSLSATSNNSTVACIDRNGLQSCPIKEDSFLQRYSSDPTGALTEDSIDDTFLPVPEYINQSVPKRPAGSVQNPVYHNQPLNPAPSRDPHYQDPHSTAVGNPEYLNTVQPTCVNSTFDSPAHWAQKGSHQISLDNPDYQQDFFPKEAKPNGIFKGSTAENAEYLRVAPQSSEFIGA
Sequence of Serine/threonine-protein kinase Chk2 (Homo sapiens) (O96017 whole entry): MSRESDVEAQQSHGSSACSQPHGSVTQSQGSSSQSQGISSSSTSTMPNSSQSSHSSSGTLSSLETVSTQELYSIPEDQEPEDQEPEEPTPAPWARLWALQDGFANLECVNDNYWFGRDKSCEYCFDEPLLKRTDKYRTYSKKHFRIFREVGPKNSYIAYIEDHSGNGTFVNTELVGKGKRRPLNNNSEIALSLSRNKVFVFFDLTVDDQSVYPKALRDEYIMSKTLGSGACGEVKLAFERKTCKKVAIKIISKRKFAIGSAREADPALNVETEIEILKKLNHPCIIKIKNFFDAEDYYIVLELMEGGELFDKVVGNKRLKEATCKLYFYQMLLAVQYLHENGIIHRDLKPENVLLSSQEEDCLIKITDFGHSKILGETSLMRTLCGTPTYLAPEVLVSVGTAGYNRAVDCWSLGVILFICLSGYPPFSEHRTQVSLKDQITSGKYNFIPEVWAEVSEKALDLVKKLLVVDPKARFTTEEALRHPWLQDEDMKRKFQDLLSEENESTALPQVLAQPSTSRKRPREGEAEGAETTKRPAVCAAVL
Sequence of RAC-alpha serine/threonine-protein kinase (Homo sapiens) (P31749 whole entry): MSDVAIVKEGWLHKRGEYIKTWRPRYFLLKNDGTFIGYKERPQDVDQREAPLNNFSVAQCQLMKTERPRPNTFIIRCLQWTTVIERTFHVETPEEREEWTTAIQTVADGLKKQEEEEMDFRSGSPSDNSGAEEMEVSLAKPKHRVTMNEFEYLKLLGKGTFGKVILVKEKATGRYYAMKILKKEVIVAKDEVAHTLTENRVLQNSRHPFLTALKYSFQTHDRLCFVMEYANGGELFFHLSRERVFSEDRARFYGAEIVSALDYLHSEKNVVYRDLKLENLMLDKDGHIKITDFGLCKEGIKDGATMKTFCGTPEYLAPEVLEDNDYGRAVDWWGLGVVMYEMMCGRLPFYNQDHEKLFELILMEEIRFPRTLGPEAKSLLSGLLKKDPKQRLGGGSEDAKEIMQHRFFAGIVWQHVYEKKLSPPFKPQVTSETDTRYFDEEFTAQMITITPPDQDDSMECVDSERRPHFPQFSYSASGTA
Sequence of Glycogen synthase kinase-3 beta (Homo sapiens) (P49841 whole entry, looked up): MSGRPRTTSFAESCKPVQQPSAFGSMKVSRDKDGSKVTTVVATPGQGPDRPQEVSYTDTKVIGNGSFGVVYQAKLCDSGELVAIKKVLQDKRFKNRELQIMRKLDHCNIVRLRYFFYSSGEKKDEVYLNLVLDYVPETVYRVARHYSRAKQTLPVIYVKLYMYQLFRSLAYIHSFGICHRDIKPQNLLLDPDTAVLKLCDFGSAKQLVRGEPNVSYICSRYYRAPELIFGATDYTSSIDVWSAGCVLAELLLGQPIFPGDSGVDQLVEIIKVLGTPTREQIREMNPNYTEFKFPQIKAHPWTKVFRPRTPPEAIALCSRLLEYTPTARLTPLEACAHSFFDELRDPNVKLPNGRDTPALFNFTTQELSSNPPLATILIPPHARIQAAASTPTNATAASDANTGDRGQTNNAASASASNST
Sequence of Mitogen-activated protein kinase 1 (Homo sapiens) (P28482 whole entry): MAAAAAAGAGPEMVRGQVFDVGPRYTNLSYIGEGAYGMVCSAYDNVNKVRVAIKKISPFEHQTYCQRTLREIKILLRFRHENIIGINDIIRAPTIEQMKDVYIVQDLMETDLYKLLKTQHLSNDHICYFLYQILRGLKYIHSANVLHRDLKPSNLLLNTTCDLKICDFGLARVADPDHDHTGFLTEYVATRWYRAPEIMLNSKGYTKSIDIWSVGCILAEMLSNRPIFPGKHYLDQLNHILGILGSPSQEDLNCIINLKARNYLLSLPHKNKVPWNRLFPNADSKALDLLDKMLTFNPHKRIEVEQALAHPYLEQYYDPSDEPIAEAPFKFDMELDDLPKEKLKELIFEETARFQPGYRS

Fc1ccc(Nc2nc(N3CCOCC3)c3nc[nH]c3n2)cc1
inhibition [1]: 72% | GI50 (HT-29 [2]): > 100000 nM | Activity (HT-29 [3]): 13.8% | inhibition [4]: 0% | inhibition [5]: 23% | IC50 [6]: 684 nM | inhibition [7]: 33% | inhibition [8]: 0% | inhibition [9]: 44% | inhibition [10]: 47% | inhibition [11]: 73% | inhibition [12]: 89.9%
